Among the data in patent US7968566B2, “Pyrrolo(2,3-b) pyridine derivatives, the preparation and the pharmaceutical use thereof in the form of kinase inhibitors” (Aventis Pharma S.A., priority 2004, dated 2011) are melting point values, retold here.

A word on the melting point: it is the temperature, or range, at which the solid turns liquid.

`COc1cc2c(-c3cc4c(C#N)ccnc4[nH]3)cn(CCN3CCN(C)CC3)c2cc1OC` [Example 102, 2-{5,6-dimethoxy-1-[2-(4-methylpiperazin-1-yl)ethyl]-1H-indol-3-yl}-1H-pyrrolo[2,3-b]pyridine-4-carbonitrile] displayed a melting point of 196 °C.

The compound `COc1cc(OC)c2c(c1)c(-c1cc3cccnc3[nH]1)cn2C` [Example 175, 2-(5,7-Dimethoxy-1-methyl-1H-indol-3-yl)-1H-pyrrolo[2,3-b]pyridine] registered a melting point of 220 °C.

For `COc1cc2c(-c3cc4c(Cl)ccnc4[nH]3)cn(CCN3CCC(CCO)CC3)c2cc1OC` [Example 100, 2-(1-{2-[3-(4-chloro-1H-pyrrolo[2,3-b]pyridin-2-yl)-5,6-dimethoxyindol-1-yl]ethyl}piperidin-4-yl)ethanol], the melting point is 200 °C.

As to `COc1cc2c(-c3cc4cc(F)cnc4[nH]3)cn(C)c2cc1OC` [Example 104, 2-(5,6-dimethoxy-1-methyl-1H-indol-3-yl)-5-fluoro-1H-pyrrolo[2,3-b]pyridine], the melting point is 283 °C.

Turning to `COc1cc2c(-c3cc4cc(F)cnc4[nH]3)cn(CCN3CCN(C)CC3)c2cc1OC` [Example 106, 2-{5,6-Dimethoxy-1-[2-(4-methylpiperazin-1-yl)ethyl]-1H-indol-3-yl}-5-fluoro-1H-pyrrolo[2,3-b]pyridine], the melting point is 188 °C.

`COc1cc2c(-c3cc4c(Cl)ccnc4[nH]3)cn(CCN3CCN(C)CC3)c2cc1OC` [Example 101, 4-chloro-2-{5,6-dimethoxy-1-[2-(4-methylpiperazin-1-yl)ethyl]-1H-indol-3-yl}-1H-pyrrolo[2,3-b]pyridine] had a melting point of 192 °C.

`COc1cc2c(-c3cc4cc(Cl)cnc4[nH]3)cn(C)c2cc1OC` [Example 103, 5-chloro-2-(5,6-dimethoxy-1-methyl-1H-indol-3-yl)-1H-pyrrolo[2,3-b]pyridine] returned a melting point of 192 °C.

Turning to `COc1cc2c(-c3cc4c(Cl)ccnc4[nH]3)cn(CCN3CCOCC3)c2cc1OC` [Example 99, 4-chloro-2-[5,6-dimethoxy-1-(2-morpholin-4-ylethyl)-1H-indol-3-yl]-1H-pyrrolo[2,3-b]pyridine], the melting point was found to be 240 °C.

On to `COc1cc2c(-c3cc4cc(F)cnc4[nH]3)cn(CCN3CCOCC3)c2cc1OC` [Example 105, 2-[5,6-dimethoxy-1-(2-morpholin-4-ylethyl)-1H-indol-3-yl]-5-fluoro-1H-pyrrolo[2,3-b]pyridine], for which the melting point is 205 to 210 °C.
